Test system: chicken leukocytes
Test: cells
Type: cell-based
Conditions: for minimal effective concentration: Gallus gallus, Leukocyte, read-out: MSC (Minimum Stimulatory Concentration)
Description: Various compounds of Formula I were evaluated for in vitro T-lymphocyte blastogenic activity with chicken leukocytes according to the steps described in the following procedure:
(a) Exsanguination step. The leukocytes were obtained from 3-6 week old Hubbard/Peterson broiler chickens. Initially, the chickens were rendered unconscious in a CO2 chamber. The chickens were then exsanguinated via cardiac puncture. In the exsanguination procedure, a syringe was connected to a needle, and the needle was inserted into the area at the base of the neck under the “V” formed by the breast and sternum. After the needle was properly inserted, continuous vacuum was applied to a syringe (connected to the needle) by pulling back on the plunger. It is important to promptly carry out this withdrawal action, because there is only a 10-15 seconds time period after the blood has starting flowing into the syringe before the blood coagulates, and becomes unusable. As soon as the syringe is full (or prior to complete filling if too much time has elapsed such that the blood begins to coagulate), the whole uncoagulated blood is transferred to a tube having the anticoagulant EDTA therein. The tube is then rotated to mix the whole blood and the EDTA. Alternatively, the whole blood can be withdrawn directly into a vacuum container already having EDTA therein, rather than into a syringe.
(b) Leukocyte isolation step. Numerous methods for isolating leukocytes from (uncoagulated) whole blood are known in the art. In a preferred method, the sterile whole blood was combined with methylcellulose (1.5:1). Any blood containing clots was discarded. The mixture was centrifuged at 30×g for ten minutes (300 rpm on Beckman GS-6R centrifuge). The top layer (leukocytes in supernatant) was decanted into a sterile 50 ml conical tube, while taking care to prevent contamination of the sample by red blood cells. The decanted layer was then centrifuged at 200×g for ten minutes (1500 rpm on the Beckman GS-6R centrifuge). The supernatant liquid was discarded, and the resulting cell “pellet” was retained.
The cells were then washed in a solution containing 10 ml PBS (phosphate buffered saline) and Gentamycin (gentamicin sulfate) at a concentration of 50 μg/ml. This solution was centrifuged at 100×g (1000 rpm on the Beckman centrifuge) for five minutes, and the supernatant liquid was discarded. The washing step (including the centrifuging at 100×g) was repeated to ensure complete removal of the methylcellulose. The use of media such as DMEM ([…]) was avoided in the washing steps, since such media may cause agglutination of the white blood cells. Finally, the cells were then suspended in an appropriate media, such as RPMI 1640 tissue cell culture medium, supplemented with phenol red, NaHCO3, and L-Glutamide. Supplemented RPMI 1640 is available from Sigma-Aldrich Chemical Co.
(c) Cell counting and cell viability step. The cells were counted and checked for viability using the Trypan Blue method of exclusion. 0.1 ml of the cell suspension was placed in a 4-5 ml small culture tube along with 0.7 ml HBSS (Hank's Buffered Saline Solution), available from Sigma-Aldrich, and 0.2 ml of a 0.4% solution of aqueous Trypan Blue stain, available from GIBCO BRL, of Grand Island, N.Y. The components were mixed thoroughly but gently, and allowed to sit for 5 minutes (no longer than 15 minutes). The components should not be exposed to the stain for extended periods of time, because such extended exposure may permit viable cells, as well as non-viable cells, to take up dye.
A cover slip was placed on a Bright Line hemacytometer, available from Howser Scientific, and 10 μl of the mixture from the tube was transferred to each chamber. Non-viable cells appear blue under a microscope. The viable cells in one of the 16-square corners of the hemacytometer were then counted. […]

[1] = chicken leukocytes, read at 72 hours
[2] = Hubbard/Peterson broiler, chicken, 72 h

Compound | minimal effective concentration [1] | MTC (Maximum Tolerable Concentration prior to causing cytotoxicity) [2] | MSC (Minimum Stimulatory Concentration) [1] | MTC (Maximum Tolerable Concentration prior to causing cytotoxicity) [1]
CCOC(=O)C1CCCN(C(=O)c2ccsc2)C1 (stereo not shown) [Example 2, Ethyl 1-(3-thiophenecarbonyl)-3-piperidinecarboxylate] | 1 µg/mL | 1 µg/mL | – | –
CCOC(=O)[C@H]1CCCN(C(=O)C(C)c2ccccc2)C1 (mixture of isomers) [Example 58, (S)±Ethyl 1-(2-Phenylpropionyl)-3-piperidinecarboxylate] | – | – | 1 µg/mL | –
Ethyl 1-(2-Bromobenzoyl)-2-acetylpiperidinecarboxylate [Example 45] | – | – | 1 µg/mL | –
CCOC(=O)C1CCC[N+](C)(Cc2ccccc2)C1.[I-] (stereo not shown) [Example 35, Ethyl 1-Benzyl-3-piperidinecarboxylate 1-Methiodide] | – | – | 10 µg/mL | –
O=C(O)[C@H]1CCCN(C(=O)Cc2cccs2)C1 [Example 37, (S)-1-(2-Thiopheneacetyl)-3-piperidine Carboxylic Acid] | 10 µg/mL | 1000 µg/mL | – | –
CNC(=O)N1C2CCC1C(C(=O)OC)C(=O)C2 (stereo not shown) [Example 40, 8-[(Methylamino)carbonyl]-3-oxo-8-azabicyclo[3.2.1]octane-2-carboxylic Acid, Methyl Ester] | 0.01 µg/mL | – | – | 10 µg/mL
CCCOC(=O)[C@H]1CCCN(C(=O)c2ccccc2)C1 [Example 53, (S)-Propyl 1-Benzoyl-3-piperidinecarboxylate] | 1 µg/mL | 10 µg/mL | – | –
CCOC(=O)C1CCCN(C(=O)Cc2cccs2)C1 (stereo not shown) [Example 9, Ethyl 1-(2-thiopheneacetyl)-3-piperidinecarboxylate] | 0.01 µg/mL | 1 µg/mL | – | –
CN(C)C(=O)C1CCC[N@+](C)(Cc2ccccc2)C1.[I-] (stereo partly drawn) [Example 71, (S)-N,N-Dimethyl 1-Benzyl-3-piperidinecarboxamide 1-methiodide] | – | – | 0.1 µg/mL | –
COC(=O)C1CN(C(=O)OCc2ccccc2)CCC1=O (stereo not shown) [Example 38, Methyl 1-Benzyloxycarbonyl-4-oxo-3-piperidinecarboxylate] | 1 µg/mL | 1 µg/mL | – | –
CCOC(=O)CC1CCCCN1C(=O)Cc1cccs1 (stereo not shown) [Example 28, Ethyl 1-(2-Thiopheneacetyl)-2-piperidinylacetate] | – | – | 0.1 µg/mL | –
O=C(Cc1cccs1)N1CCC[C@H](CO)C1 [Example 59] | – | – | 10 µg/mL | 100 µg/mL
